The text below walks through data of EP0155872A1, “Process for reducing the lignin content of plants, and compositions for putting it into use” (priority 1984, dated 1985).

Assay [1] deals with fractions de xylème de peuplier. The experiment in a line: Incorporation of cinnamic acid (14C3) into lignins by isolated poplar xylem fractions. The following applies: for Taux de radio-activité incorporé dans les lignines (%) / Radioactivité absorbée (µCi/essai) / Radioactivité incorporée dans les lignines (µCi/essai): 30 h; for Radioactivité absorbée (µCi/essai) / Radioactivité incorporée dans les lignines (µCi/essai): mean of 3; for inhibition at 200 µM / inhibition at 1000 µM: relative to % incorporated in the control = 100. It counts as cell-based. As to the method:
Les tissus de xylème isolés (300 mg par essai) sont mis en suspension dans des fioles d'erlenmeyer (25ml), bouchées par du coton cardé contenant : • - du tampon Tris/HCl, O,lM, pH 7,5 (qsp Sml) maintenant le pH entre 7 et 8, • - du Dextran T40 (25 g/1) utilisé comme agent osmotique, ne constituant pas une source de carbone pour la cellule végétale, • - du mercaptoéthanol (O,lmM), antioxydant qui empêche un brunissement très rapide des tissus, • - de l'éther monométhylique de l'éthylène glycol (EMMEG) (50 µl) ou des inhibiteurs solubilisés dans ce polyol (5^0 µ1), • - de l'acide cinnamique (^14C3) (2,5 µCi).
Les fioles sont palcées à 26°C, sous agitation orbitale (agitateur New Brunswick modèle G 10,100 rpm) et sous un éclairement de 4000 lux pendant 30 h. La radioactivité incorporée par les lignines est alors estimée à partir de "poudre alcool-benzène" obtenu par extraction à l'alcool-benzène des fractions tissulaires lyophilisées et réduites en poudre.
Afin de mesurer l'absorption de l'acide cinnamique par les fractions tissulaires et de corriger d'éventuelles différences d'absorption selon les essais, une fraction aliquote du milieu d'incubation (50 µl) est prélevée à différents temps et la radioactivité estimée au compteur à scintillation liquide.
La mesure de la radioactivité libérée sous forme de ^14CO2 après combustion totale des "poudres alcool-benzène" révèle qu'en présence du OHPAS ou du NH2PAS, on observe une baisse de la radioactivité retrouvée dans les lignines. Ainsi, ces inhibiteurs entraînent à la concentration de lmM, une inhibition de 40 à 70% de la synthèse des lignines radioactives. Ces résultats sont rapportés dans le tableau 3 ci-après : […]

A further assay addresses T1, CAD (Populus deltoides, UniProt P31657).
T1 sequence (P31657 1-357): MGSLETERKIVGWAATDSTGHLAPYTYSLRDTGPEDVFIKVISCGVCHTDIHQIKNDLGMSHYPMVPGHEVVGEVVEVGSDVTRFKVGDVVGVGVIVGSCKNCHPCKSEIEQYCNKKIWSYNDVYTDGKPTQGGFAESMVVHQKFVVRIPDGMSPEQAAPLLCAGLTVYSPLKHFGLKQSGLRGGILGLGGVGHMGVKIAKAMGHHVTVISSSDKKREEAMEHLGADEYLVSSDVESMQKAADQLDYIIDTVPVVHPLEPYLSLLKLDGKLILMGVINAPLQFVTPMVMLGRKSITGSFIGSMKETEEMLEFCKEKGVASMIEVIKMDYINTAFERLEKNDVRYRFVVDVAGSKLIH
In words: Specificity of the inhibitors among the enzymes tested. In kind it is biochemical.

A further assay relates to tiges de peuplier. The experiment in a line: Incorporation of cinnamic acid (14C3) into lignins in cut poplar stems. In kind it is in vivo. Conditions: 96 heures de métabolisation, read-out: inhibition de l'incorporation de l'acide cinnamique dans le polymère. The text has this:
Afin de vérifier chez des tiges de peuplier l'action de l'OHPAS et du NH2PAS, on réalise des incorporations d'acide cinnamique (5 yCi) à des rameaux comportant 12 entrenoeuds selon la technique de la tige sectionnée décrite par BOUDET,dans C.R. Acad. Sci.Paris, p. 1966-1968, 269, 1969. La radioactivité des lignines est mesurée après 96 heures de métabolisation.
Lorsque la métabolisation est effectuée en présence du OHPAS et du NH2PAS, on observe une diminution de la radioactivité incorporée dans les lignines. Ainsi, l'OHPAS, à la concentration de 160 µM inhibe de 46% l'incorporation de l'acide cinnamique dans le polymère. Bien que les concentrations en inhibiteurs soient plus faibles, l'effet des inhibiteurs apparaîtsemanifester de façon plus nette-pour une métabolisation de plus longue durée.

The test system of the next assay is CCR. The experiment in a line: Inhibition of cinnamoyl:CoA reductase (CCR). In kind it is biochemical.

For `CC(C)(C)OC(=O)C[S+]([O-])Nc1ccccc1O` (stereo not shown) [composé 2, N-(o -hydroxy phényl)sulfinamoyl acétate de tertiobutyle], in assay [1] (0,2mM), the “Taux de radio-activité incorporé dans les lignines (%)” value amounted to 24%, the “Radioactivité absorbée (µCi/essai)” value is reported as 0,75 µCi/essai, the “Radioactivité incorporée dans les lignines (µCi/essai)” value is 0,18 µCi/essai and the inhibition at 200 µM stood at 17%. Also, in assay [1] (1mM), the “Taux de radio-activité incorporé dans les lignines (%)” value came out at 10%, the “Radioactivité absorbée (µCi/essai)” value is on record as 0,75 µCi/essai, the “Radioactivité incorporée dans les lignines (µCi/essai)” value was 0,075 µCi/essai and the inhibition at 1000 µM amounted to 70%. Also, at CAD, the “spécificité en regard des enzymes testées” value is recorded as “spécificité stricte vis-à-vis de la CAD”. Moreover, in the assay with tiges de peuplier, the inhibition at 160 µM turned out to be 46%.

For the compound `CC(C)(C)OC(=O)C[S+]([O-])Nc1ccccc1N` (stereo not shown) [composé 5, N-(o-Amino phényl)Sulfinamoyl Acétate de tertiobutyle], in assay [1] (0,2mM), the “Taux de radio-activité incorporé dans les lignines (%)” value was determined as 32%, the “Radioactivité absorbée (µCi/essai)” value is 0,80 µCi/essai, the “Radioactivité incorporée dans les lignines (µCi/essai)” value is on record as 0,26 µCi/essai and the inhibition at 200 µM amounted to 4%. Also, in assay [1] (1mM), the “Taux de radio-activité incorporé dans les lignines (%)” value stood at 20%, the “Radioactivité absorbée (µCi/essai)” value is 0,80 µCi/essai, the “Radioactivité incorporée dans les lignines (µCi/essai)” value is 0,16 µCi/essai and the inhibition at 1000 µM stood at 40%. The “inhibition de la CCR” value in the assay on CCR is recorded as “inhibe également la CCR”.
